In PMC6915887, “Inhibition of human carboxylesterases by ginsenosides: structure–activity relationships and inhibitory mechanism” (Chinese Medicine, 2019):
Where two headings read alike, the source gives them in different places.

How the values were obtained:
hCES1A = biological target: T1, hCES1A (Homo sapiens, UniProt P23141); experiment: hCES1A inhibition assay (DME hydrolysis in HLM); format: biochemical; details: for inhibition of hCES1A-mediated DME hydrolysis (residual activity screen): HLM, ginsenoside 100 μM, result in words;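 for all read-outs here: Read-out is D-luciferin luminescence formed from DME (3 µM) after 10 min at 37 °C in pH 6.5 PBS, HLM 1 µg/mL, inhibitor preincubated 3 min, oleanic acid as positive control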
T1 construct: tissue Bioreclamation IVT lot no; X008067; host or cells: pooled human liver microsomes (50 donors)
T1 sequence (P23141 18-567): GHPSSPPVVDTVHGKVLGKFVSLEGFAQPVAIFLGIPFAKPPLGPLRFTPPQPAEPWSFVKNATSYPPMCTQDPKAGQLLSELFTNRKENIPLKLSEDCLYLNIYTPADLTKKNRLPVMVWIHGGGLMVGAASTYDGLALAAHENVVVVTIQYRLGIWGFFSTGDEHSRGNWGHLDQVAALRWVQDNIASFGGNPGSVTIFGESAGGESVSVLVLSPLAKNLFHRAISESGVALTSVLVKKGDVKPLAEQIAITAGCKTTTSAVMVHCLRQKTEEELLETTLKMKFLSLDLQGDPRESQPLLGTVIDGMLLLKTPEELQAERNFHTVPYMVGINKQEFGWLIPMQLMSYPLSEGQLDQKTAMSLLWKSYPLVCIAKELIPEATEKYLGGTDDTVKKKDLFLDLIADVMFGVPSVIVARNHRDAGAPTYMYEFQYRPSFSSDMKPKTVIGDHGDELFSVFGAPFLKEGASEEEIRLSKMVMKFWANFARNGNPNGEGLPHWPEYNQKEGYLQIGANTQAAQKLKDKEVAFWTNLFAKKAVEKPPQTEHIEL

hCES2A = biological target: T2, hCES2A (Homo sapiens, UniProt O00748); experiment: hCES2A inhibition assay (FD hydrolysis in HLM); format: biochemical; details: for Specificity (hCES1A/hCES2A): ratio of IC50 values in HLM; for inhibition of hCES2A-mediated FD hydrolysis (residual activity screen): HLM, ginsenoside 100 μM, result in words;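 for all read-outs here: HLM at 1 µg/mL in 0.1 M PBS pH 7.4, kinetic read at 37 °C every 30 s over 30 min, triplicate runs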
T2 construct: tissue Bioreclamation IVT lot no; X008067; host or cells: pooled human liver microsomes (50 donors)
T2 sequence (O00748 27-559): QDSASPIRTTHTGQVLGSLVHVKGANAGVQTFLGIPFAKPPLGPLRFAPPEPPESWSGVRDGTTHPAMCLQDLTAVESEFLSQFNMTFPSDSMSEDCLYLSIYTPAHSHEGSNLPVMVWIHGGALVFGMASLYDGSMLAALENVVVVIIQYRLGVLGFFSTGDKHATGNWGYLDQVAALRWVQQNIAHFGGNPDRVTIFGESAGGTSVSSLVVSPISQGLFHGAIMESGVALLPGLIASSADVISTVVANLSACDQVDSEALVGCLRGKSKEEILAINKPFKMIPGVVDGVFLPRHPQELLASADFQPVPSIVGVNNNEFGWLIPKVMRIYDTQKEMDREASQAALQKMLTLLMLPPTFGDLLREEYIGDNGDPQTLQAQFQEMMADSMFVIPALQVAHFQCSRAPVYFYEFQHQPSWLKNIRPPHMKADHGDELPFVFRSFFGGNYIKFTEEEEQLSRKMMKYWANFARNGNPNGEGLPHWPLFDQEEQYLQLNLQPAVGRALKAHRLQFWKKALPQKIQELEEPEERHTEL

[1] = HLM as enzyme source, DME hydrolysis as probe reaction, read-out: IC50 (μM) hCES1A
[2] = HLM as enzyme source, FD hydrolysis as probe reaction, read-out: IC50 (μM) hCES2A

| Compound | IC50 (hCES1A; [1]) | Specificity (hCES1A/hCES2A) (hCES2A) | IC50 (hCES2A; [2]) | inhibition of hCES2A-mediated FD hydrolysis (residual activity screen) (hCES2A) | also measured |
| --- | --- | --- | --- | --- | --- |
| CC(C)=CC/C=C(/C)C1CC[C@]2(C)C1[C@H](O)CC1[C@@]3(C)CC[C@H](O)C(C)(C)C3[C@@H](O[C@@H]3O[C@H](CO)[C@@H](O)[C@H](O)[C@H]3O[C@@H]3O[C@@H](C)[C@H](O)[C@@H](O)[C@H]3O)C[C@]12C (stereo partly shown) [F4] | > 100 µM | > 2.22 | – | – | – |
| CC(C)=CCC[C@](C)(O)[C@H]1CC[C@]2(C)[C@@H]1[C@H](O)C[C@@H]1[C@@]3(C)CC[C@H](O[C@@H]4O[C@H](CO)[C@@H](O)[C@H](O)[C@H]4O)C(C)(C)[C@@H]3CC[C@]12C [Rh2] | – | > 18.86 | – | – | IC50 (hCES1A): > 100 µM |
| CC(C)=CCC[C@](C)(O)[C@H]1CC[C@]2(C)[C@@H]1[C@H](O)C[C@@H]1[C@@]3(C)CC[C@H](O)C(C)(C)[C@@H]3[C@@H](O[C@@H]3O[C@H](CO)[C@@H](O)[C@H](O)[C@H]3O)C[C@]12C [Rh1, ginsenoside Rh1] | – | – | – | – | IC50 (hCES1A): > 100 µM; IC50 (hCES2A): > 100 µM |
| CC(C)=CCC[C@](C)(O[C@@H]1O[C@H](CO)[C@@H](O)[C@H](O)[C@H]1O)C1CC[C@]2(C)C1[C@H](O)CC1[C@@]3(C)CC[C@H](O)C(C)(C)C3[C@@H](O[C@@H]3O[C@H](CO)[C@@H](O)[C@H](O)[C@H]3O[C@@H]3OC[C@@H](O)[C@H](O)[C@H]3O)C[C@]12C (stereo partly shown) [R1, ginsenoside R1] | > 100 µM | – | > 100 µM | – | – |
| CC(C)=CCC[C@](C)(O[C@@H]1O[C@H](CO[C@@H]2OC[C@H](O)[C@H](O)[C@H]2O)[C@@H](O)[C@H](O)[C@H]1O)[C@H]1CC[C@]2(C)[C@@H]1[C@H](O)C[C@@H]1[C@@]3(C)CC[C@H](O[C@@H]4O[C@H](CO)[C@@H](O)[C@H](O)[C@H]4O[C@@H]4O[C@H](CO)[C@@H](O)[C@H](O)[C@H]4O)C(C)(C)[C@@H]3CC[C@]12C [Rb2] | > 100 µM | – | > 100 µM | hardly inhibit | inhibition of hCES1A-mediated DME hydrolysis (residual activity screen) (hCES1A): hardly inhibit |
| CC(C)=CCC[C@](C)(O)C1CC[C@]2(C)C1[C@H](O)CC1[C@@]3(C)CC[C@H](O[C@@H]4O[C@H](CO)[C@@H](O)[C@H](O)[C@H]4O[C@@H]4O[C@H](CO)[C@@H](O)[C@H](O)[C@H]4O)C(C)(C)C3CC[C@]12C (stereo partly shown) [Rg3] | > 100 µM | > 9.64 | – | – | – |
| CC1(C)CCC[C@](C)([C@H]2CC[C@]3(C)[C@@H]2[C@H](O)C[C@@H]2[C@@]4(C)CC[C@H](O)C(C)(C)[C@@H]4[C@@H](O)C[C@]23C)O1 [Panaxatriol, panaxatriol] | 34.9 ± 6.16 µM | – | – | – | – |
| CC(C)=CCC[C@](C)(O[C@@H]1O[C@H](CO[C@@H]2O[C@@H](CO)[C@H](O)[C@H]2O)[C@@H](O)[C@H](O)[C@H]1O)[C@H]1CC[C@]2(C)[C@@H]1[C@H](O)C[C@@H]1[C@@]3(C)CC[C@H](O[C@@H]4O[C@H](CO)[C@@H](O)[C@H](O)[C@H]4O[C@@H]4O[C@H](CO)[C@@H](O)[C@H](O)[C@H]4O)C(C)(C)[C@@H]3CC[C@]12C [Rc] | > 100 µM | >1.22 | – | – | – |
| CC(C)=CCC[C@](C)(O[C@@H]1O[C@H](CO)[C@@H](O)[C@H](O)[C@H]1O)[C@H]1CC[C@]2(C)[C@@H]1[C@H](O)C[C@@H]1[C@@]3(C)CC[C@H](O[C@@H]4O[C@H](CO)[C@@H](O)[C@H](O)[C@H]4O)C(C)(C)[C@@H]3CC[C@]12C [F2] | > 100 µM | – | – | – | – |
| CC(C)=CC/C=C(\C)[C@H]1CC[C@]2(C)[C@@H]1[C@H](O)C[C@@H]1[C@@]3(C)CC[C@H](O)C(C)(C)[C@@H]3[C@@H](O[C@@H]3O[C@H](CO)[C@@H](O)[C@H](O)[C@H]3O)C[C@]12C [Rh4] | > 100 µM | – | – | – | – |
| CC(C)=CCC[C@](C)(O)[C@H]1CC[C@]2(C)[C@@H]1[C@H](O)C[C@@H]1[C@@]3(C)CC[C@H](O)C(C)(C)[C@@H]3[C@@H](O[C@@H]3O[C@H](CO)[C@@H](O)[C@H](O)[C@H]3O[C@@H]3O[C@@H](C)[C@H](O)[C@@H](O)[C@H]3O)C[C@]12C [Rg2, ginsenoside Rg2] | > 100 µM | – | > 100 µM | hardly inhibit | inhibition of hCES1A-mediated DME hydrolysis (residual activity screen) (hCES1A): hardly inhibit |
| CC(C)=CCC[C@](C)(O[C@@H]1O[C@H](CO)[C@@H](O)[C@H](O)[C@H]1O)[C@H]1CC[C@]2(C)[C@@H]1[C@H](O)C[C@@H]1[C@@]3(C)CC[C@H](O)C(C)(C)[C@@H]3[C@@H](O[C@@H]3O[C@H](CO)[C@@H](O)[C@H](O)[C@H]3O[C@@H]3O[C@@H](C)[C@H](O)[C@@H](O)[C@H]3O)C[C@]12C [Re, ginsenoside Re] | > 100 µM | – | > 100 µM | hardly inhibit | inhibition of hCES1A-mediated DME hydrolysis (residual activity screen) (hCES1A): hardly inhibit |
| CC(C)=CCC[C@](C)(O[C@@H]1O[C@H](CO[C@@H]2O[C@H](CO)[C@@H](O)[C@H](O)[C@H]2O)[C@@H](O)[C@H](O)[C@H]1O)[C@H]1CC[C@]2(C)[C@@H]1[C@H](O)C[C@@H]1[C@@]3(C)CC[C@H](O[C@@H]4O[C@H](CO)[C@@H](O)[C@H](O)[C@H]4O[C@@H]4O[C@H](CO)[C@@H](O)[C@H](O)[C@H]4O)C(C)(C)[C@@H]3CC[C@]12C [Rb1] | > 100 µM | – | > 100 µM | hardly inhibit | inhibition of hCES1A-mediated DME hydrolysis (residual activity screen) (hCES1A): hardly inhibit |
| CC(C)=CCC[C@](C)(O[C@@H]1O[C@H](CO)[C@@H](O)[C@H](O)[C@H]1O)[C@H]1CC[C@]2(C)[C@@H]1[C@H](O)C[C@@H]1[C@@]3(C)CC[C@H](O[C@@H]4O[C@H](CO)[C@@H](O)[C@H](O)[C@H]4O[C@@H]4O[C@H](CO)[C@@H](O)[C@H](O)[C@H]4O)C(C)(C)[C@@H]3CC[C@]12C [Rd] | > 100 µM | > 7.12 | – | – | – |
| CC1(C)CCC[C@](C)([C@H]2CC[C@]3(C)[C@@H]2[C@H](O)C[C@@H]2[C@@]4(C)CC[C@H](O)C(C)(C)[C@@H]4CC[C@]23C)O1 [Panaxadiol, panaxadiol] | 6.95 ± 1.29 µM | 1.84 | – | strong or moderate inhibition | – |
| CC(C)=CCC[C@](C)(O[C@@H]1O[C@H](CO[C@@H]2OC[C@@H](O)[C@H](O)[C@H]2O)[C@@H](O)[C@H](O)[C@H]1O)[C@H]1CC[C@]2(C)[C@@H]1[C@H](O)C[C@@H]1[C@@]3(C)CC[C@H](O[C@@H]4O[C@H](CO)[C@@H](O)[C@H](O)[C@H]4O[C@@H]4O[C@H](CO)[C@@H](O)[C@H](O)[C@H]4O)C(C)(C)[C@@H]3CC[C@]12C [Rb3] | > 100 µM | – | > 100 µM | hardly inhibit | inhibition of hCES1A-mediated DME hydrolysis (residual activity screen) (hCES1A): hardly inhibit |
| CC1(C)CCC2(C(=O)OC3OC(CO)C(O)C(O)C3O)CCC3(C)C(=CCC4C5(C)CCC(OC6OC(C(=O)O)C(O)C(O)C6OC6OC(CO)C(O)C(O)C6O)C(C)(C)C5CCC43C)C2C1 (stereo not shown) [Ro] | > 100 µM | – | > 100 µM | – | – |
| CC(C)=CCC[C@](C)(O[C@@H]1O[C@H](CO)[C@@H](O)[C@H](O)[C@H]1O)[C@H]1CC[C@]2(C)[C@@H]1[C@H](O)C[C@@H]1[C@@]3(C)CC[C@H](O)C(C)(C)[C@@H]3[C@@H](O)C[C@]12C [F1, ginsenoside F1] | > 100 µM | > 2.70 | – | – | – |
| CC(C)=CCC[C@](C)(O[C@@H]1O[C@H](CO)[C@@H](O)[C@H](O)[C@H]1O)[C@H]1CC[C@]2(C)[C@@H]1[C@H](O)C[C@@H]1[C@@]3(C)CC[C@H](O)C(C)(C)[C@@H]3CC[C@]12C [C-K, ginsenoside C-K] | > 100 µM | – | – | – | – |
| CC1(C)CC[C@]2(C(=O)O)CC[C@]3(C)C(=CC[C@@H]4[C@@]5(C)CC[C@H](O)C(C)(C)[C@@H]5CC[C@]43C)[C@@H]2C1 [oleanic acid, reference compound] | 0.1 µM | – | – | – | – |
